Blank lines part the entries; values can stand above or below the molecule they belong to.
Legend:
H390A-LRH-1 = molecular target: T1, H390A-LRH-1 (Homo sapiens, UniProt O00482, H390A); design: method as in PMID 27694446; details: cited from earlier work
T1 construct: expressed in transfected cells; host or cells: Hela cells

[1] = molecular target: T2, Liver receptor homolog-1 (LRH-1) ligand binding domain (UniProt O00482 299-541); assay: crystal structure; LRH-1 LBD (His-tag cleaved) saturated with SS-RJW100, combined with the Tif2 NR Box 3 peptide, 6 mg/ml; hanging drop vapor diffusion at 18 °C with microseeding; 0.05 M sodium acetate pH 4.6, 5–11% PEG4000; details: both partners purified
T2 construct: also called LRH-1 LBD
T2 sequence (O00482 299-541): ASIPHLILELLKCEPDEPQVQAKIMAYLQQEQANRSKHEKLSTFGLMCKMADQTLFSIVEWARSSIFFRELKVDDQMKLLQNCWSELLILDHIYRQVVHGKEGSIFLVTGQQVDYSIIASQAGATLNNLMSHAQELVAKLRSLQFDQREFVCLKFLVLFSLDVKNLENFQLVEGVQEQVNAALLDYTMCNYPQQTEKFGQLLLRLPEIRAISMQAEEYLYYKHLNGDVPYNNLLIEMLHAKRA

T1 sequence (O00482 whole entry H390A): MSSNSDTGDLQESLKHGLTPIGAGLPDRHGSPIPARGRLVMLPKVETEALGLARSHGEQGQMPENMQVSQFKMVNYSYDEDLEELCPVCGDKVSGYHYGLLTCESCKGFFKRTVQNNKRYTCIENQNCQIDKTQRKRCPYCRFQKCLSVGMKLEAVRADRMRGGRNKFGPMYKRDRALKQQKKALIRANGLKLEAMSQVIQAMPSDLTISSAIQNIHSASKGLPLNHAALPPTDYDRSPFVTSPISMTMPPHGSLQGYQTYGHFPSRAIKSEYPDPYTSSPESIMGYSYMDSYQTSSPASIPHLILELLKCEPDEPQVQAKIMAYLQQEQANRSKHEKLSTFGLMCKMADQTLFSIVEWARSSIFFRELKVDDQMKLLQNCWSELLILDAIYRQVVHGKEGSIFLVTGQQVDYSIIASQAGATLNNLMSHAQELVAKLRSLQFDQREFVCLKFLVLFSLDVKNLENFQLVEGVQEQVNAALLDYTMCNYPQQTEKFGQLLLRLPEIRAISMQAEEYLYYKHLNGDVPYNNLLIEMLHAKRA

Molecule: CCC/C=C(\CCC)C1=C(c2ccccc2)[C@]2(Nc3ccccc3)CCC[C@@H]2C1 [GSK8470]
activation of H390A-LRH-1 (H390A-LRH-1): cannot activate

binding result [1]: binds
B1: peptide corresponding to the NR Box 3 of the Tif2 coactivator (peptide)
peptide: KENALLRYLLDKDDT
notes: source: synthetic peptide (RS Synthesis)
